Measurements published in patent publication US5352770A, “Porcine derived novel physiologically active peptide” (priority 1990, dated 1994).
Positions of bridges follow the written chain, without caps; N, C: chain ends. No end group written: not given here.

Legend:
[1] = test system: VSMC of rats; assay: Cell growth suppressing activity ([3H]thymidine uptake); format: cell-based, rat; settings: cultured vascular smooth muscle cell line
Experimental: Cell growth suppressing ability was evaluated in accordance with the method of Kariya et al. (Atherosclerosis, 80, 143-147, 1990) by measuring the uptake of ^3 H thymidine into cells as an indicator of DNA synthesis activity using VSMC of rats. Cells tuned to a stationary phase were incubated in 1% serum at 37° C. for 14 h together with various concentrations of α-hANP or CNP; following the addition of 37 KBq/ml [^3 H]thymidine, the incubation was continued for another 4 h. The radioactivity of [^3 H] thymidine incorporated into the cells was measured. The values of measurement were such that the radioactivity of [^3 H] thymidine for the case where only 1% serum was added in the absence of peptide was taken as 100%, with the percent suppression due to the peptide at the respective concentrations being accordingly calculated.

[2] = test system: chick rectum; assay: Chick rectum relaxant activity; settings: fold activity versus α-hANP
Experimental: Chick rectum relaxant activity was measured in accordance with the method of Curtie et al. (Cuttle et al., Nature, 221, 1-13, 1983).

[3] = test system: cultured vascular smooth muscle cell line; assay: cGMP production in cultured vascular smooth muscle cell line; format: cell-based
[4] = test system: Male SD rats; assay: Natriuretic and hypotensive actions in anesthetized rats after intravenous administration; format: in vivo, rat; settings: for Blood pressure drop / Cl- excretion / K+ excretion / Na+ excretion / Urine excretion: change in 15 min after administration vs before, mean±S.D., 4 animals
Experimental: Male SD rats (body weight: 230-290 g) were anesthetized by intraperitoneal injection with 65 mg/kg of pentobarbital and fitted with a tracheotomy tube (PE-240 of Clay Adams) in order to insure the respiratory tract. A cannula (PE-50) for blood pressure measurement was inserted into the hip artery and a Ringer's solution was injected at a steady rate of 1.8 ml/hr through a cannula (PE-10) inserted into the hip vein. A urinary sample was taken into a test tube through a cystic cannula in the form of a Silastic tube (i.d. 0.02 inch; o.d. 0.037 inch; Dow Corning). Urinary samples were taken both for 15 minutes before the administration of the test substance and until 15 minutes after the administration at 5 min interval, followed by subsequent sampling at predetermined time intervals. By comparing the amount of each sample with the concentration of an electrolyte in it, as well as by measuring the blood pressure changes, the actions of the test substance were evaluated.
The test substance CNP was dissolved in a predetermined amount in 0.1 N acetic acid and thereafter neutralized with a 1/10 volume of 1.3 M Tris solution. The sample was diluted with 50 μl of sterilized physiological saline and administered via the cervical vein.
Data are shown in terms of mean±S.D., as obtained from each group of 4 animals, of the change that occurred in the 15-min period from the administration of the test substance, as compared to the state before the administration.

[5] = test system: rats; settings: cited from earlier work

| Molecule | Growth inhibiting action on vascular smooth muscle cells (in words) [1] | Chick rectum relaxant activity relative to α-hANP [2] | Activity for promoting the production of cGMP (in words) [3] | Blood pressure drop ([4]; CNP dose 12 nmol/kg i.v.) [mmHg] | Cl- excretion ([4]; CNP dose 12 nmol/kg i.v.) [%] | K+ excretion ([4]; CNP dose 12 nmol/kg i.v.) [%] | Na+ excretion ([4]; CNP dose 12 nmol/kg i.v.) [%] | Urine excretion ([4]; CNP dose 12 nmol/kg i.v.) [%] | Blood pressure drop ([4]; CNP dose 80 nmol/kg i.v.) [mmHg] | Cl- excretion ([4]; CNP dose 80 nmol/kg i.v.) [%] | K+ excretion ([4]; CNP dose 80 nmol/kg i.v.) [%] | Na+ excretion ([4]; CNP dose 80 nmol/kg i.v.) [%] | Urine excretion ([4]; CNP dose 80 nmol/kg i.v.) [%] | Blood pressure drop ([4]; CNP dose 160 nmol/kg i.v.) [mmHg] | Cl- excretion ([4]; CNP dose 160 nmol/kg i.v.) [%] | K+ excretion ([4]; CNP dose 160 nmol/kg i.v.) [%] | Na+ excretion ([4]; CNP dose 160 nmol/kg i.v.) [%] | Urine excretion ([4]; CNP dose 160 nmol/kg i.v.) [%] | Natriuretic and hypotensive actions (in words) ([4]; rats, intravenous, 12-160 nmol/kg) | Natriuretic and hypotensive actions compared with α-hANP (in words) [5] |
| --- | --- | --- | --- | --- | --- | --- | --- | --- | --- | --- | --- | --- | --- | --- | --- | --- | --- | --- | --- | --- |
| CC[C@H](C)[C@@H]1NC(=O)[C@H](CCCNC(=N)N)NC(=O)[C@H](CC(=O)O)NC(=O)[C@H](CC(C)C)NC(=O)[C@H](CCCCN)NC(=O)[C@H](CC(C)C)NC(=O)CNC(=O)[C@H](Cc2ccccc2)NC(=O)[C@@H](NC(=O)CNC(=O)[C@H](CCCCN)NC(=O)[C@H](CO)NC(=O)[C@H](CC(C)C)NC(=O)CN)CSSC[C@@H](C(=O)O)NC(=O)CNC(=O)[C@H](CC(C)C)NC(=O)CNC(=O)[C@H](CO)NC(=O)[C@H](CCSC)NC(=O)[C@H](CO)NC(=O)CNC1=O [CNP] | had a growth inhibiting action | 3 - 4 times | found to have an activity for promoting the production of cyclic guanosine monophosphate | 6.7 ± 1.7 | 228 ± 32 | 220 ± 43 | 192 ± 28 | 229 ± 38 | 16.7 ± 4.2 | 301 ± 83 | 167 ± 29 | 286 ± 125 | 251 ± 62 | 14.2 ± 5.2 | 400 ± 45 | 238 ± 46 | 371 ± 69 | 421 ± 40 | those actions increased in a dose-dependent manner | – |
| pBNP: porcine-derived brain natriuretic peptide, single-stranded peptide composed of 26 amino acids having a single S--S bond (DSGCFGRRLDRIGSLSGLGCNVLRRY; disulfide 4-20 (inferred); UniProt P07634 106-131, looked up) | – | – | – | – | – | – | – | – | – | – | – | – | – | – | – | – | – | – | – | comparable levels of natriuretic and hypotensive actions to α-hANP |
